Data: US20140348819A1, “Methods of Treating Cancer” (Dana-Farber Cancer Institute, Inc., priority 2011, published 2014)

Tests used:
Type in all cases: cell-based, human
[1] = tested on: V600E BRAF melanoma cell lines; assay: HGF-induced / stromal resistance of melanoma cell lines to BRAF, MEK and AKT inhibitors and its reversal
[2] = tested on: six V600E BRAF melanoma cell lines; assay: Screening of recombinant RTK ligands for ability to confer resistance to BRAFi (PLX4720) or MEKi (PD184352) (Table 4); design: ability of recombinant RTK ligand to confer resistance / ability of recombinant RTK ligand to confer resistance (screening value): scale not given here
Procedure, shortened: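 Six V600E BRAF melanoma lines treated with PLX4720 or PD184352 after addition of 22 recombinant RTK ligands, scored for drug resistance. Activation of selected RTKs confirmed by western blotting and high-throughput tyrosine kinase phosphorylation profiling.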

pERK/pAKT = assay: High-throughput western analysis of pERK/pAKT re-activation by RTK ligands under BRAFi/MEKi

Substance: HGF: paracrine cellular growth factor, ligand of the RTK c-MET
- HGF-conferred resistance, BRAFi versus MEKi ([1]; FIG. 11C): better resistance to BRAFi than MEKi
- HGF-conferred resistance ([1]; combination of BRAFi and AKTi (MK-2206)): confers resistance
- ability of recombinant RTK ligand to confer resistance ([2]; A2058, PD184352 - 1 uM, ligand 0.4 ng/ml): 1.02
- ability of recombinant RTK ligand to confer resistance ([2]; A2058, PD184352 - 1 uM, ligand 1.6 ng/ml): 1.01
- ability of recombinant RTK ligand to confer resistance ([2]; A2058, PD184352 - 1 uM, ligand 6.25 ng/ml): 1.10
- ability of recombinant RTK ligand to confer resistance ([2]; A2058, PD184352 - 1 uM, ligand 25 ng/ml): 1.10
- ability of recombinant RTK ligand to confer resistance ([2]; A2058, PD184352 - 1 uM, ligand 100 ng/ml): 1.66
- ability of recombinant RTK ligand to confer resistance ([2]; A2058, PLX4720 - 2 uM, ligand 0.4 ng/ml): 1.03
- ability of recombinant RTK ligand to confer resistance ([2]; A2058, PLX4720 - 2 uM, ligand 1.6 ng/ml): 1.02
- ability of recombinant RTK ligand to confer resistance ([2]; A2058, PLX4720 - 2 uM, ligand 6.25 ng/ml): 1.12
- ability of recombinant RTK ligand to confer resistance ([2]; A2058, PLX4720 - 2 uM, ligand 25 ng/ml): 1.32
- ability of recombinant RTK ligand to confer resistance ([2]; A2058, PLX4720 - 2 uM, ligand 100 ng/ml): 1.49
- ability of recombinant RTK ligand to confer resistance ([2]; C32, PD184352 - 1 uM, ligand 0.4 ng/ml): 1.10
- ability of recombinant RTK ligand to confer resistance ([2]; C32, PD184352 - 1 uM, ligand 1.6 ng/ml): 1.08
- ability of recombinant RTK ligand to confer resistance ([2]; C32, PD184352 - 1 uM, ligand 6.25 ng/ml): 1.29
- ability of recombinant RTK ligand to confer resistance ([2]; C32, PD184352 - 1 uM, ligand 25 ng/ml): 1.08
- ability of recombinant RTK ligand to confer resistance ([2]; C32, PD184352 - 1 uM, ligand 100 ng/ml): 1.96
- ability of recombinant RTK ligand to confer resistance ([2]; C32, PLX4720 - 2 uM, ligand 0.4 ng/ml): 1.04
- ability of recombinant RTK ligand to confer resistance ([2]; C32, PLX4720 - 2 uM, ligand 1.6 ng/ml): 1.15
- ability of recombinant RTK ligand to confer resistance ([2]; C32, PLX4720 - 2 uM, ligand 6.25 ng/ml): 1.42
- ability of recombinant RTK ligand to confer resistance ([2]; C32, PLX4720 - 2 uM, ligand 25 ng/ml): 1.96
- ability of recombinant RTK ligand to confer resistance ([2]; C32, PLX4720 - 2 uM, ligand 100 ng/ml): 2.01
- ability of recombinant RTK ligand to confer resistance ([2]; Colo 829, PD184352 - 1 uM, ligand 0.4 ng/ml): 0.96
- ability of recombinant RTK ligand to confer resistance ([2]; Colo 829, PD184352 - 1 uM, ligand 1.6 ng/ml): 0.99
- ability of recombinant RTK ligand to confer resistance ([2]; Colo 829, PD184352 - 1 uM, ligand 6.25 ng/ml): 1.12
- ability of recombinant RTK ligand to confer resistance ([2]; Colo 829, PD184352 - 1 uM, ligand 25 ng/ml): 1.41
- ability of recombinant RTK ligand to confer resistance ([2]; Colo 829, PD184352 - 1 uM, ligand 100 ng/ml): 1.89
- ability of recombinant RTK ligand to confer resistance ([2]; Colo 829, PLX4720 - 2 uM, ligand 0.4 ng/ml): 1.00
- ability of recombinant RTK ligand to confer resistance ([2]; Colo 829, PLX4720 - 2 uM, ligand 1.6 ng/ml): 1.02
- ability of recombinant RTK ligand to confer resistance ([2]; Colo 829, PLX4720 - 2 uM, ligand 6.25 ng/ml): 1.14
- ability of recombinant RTK ligand to confer resistance ([2]; Colo 829, PLX4720 - 2 uM, ligand 25 ng/ml): 1.35
- ability of recombinant RTK ligand to confer resistance ([2]; Colo 829, PLX4720 - 2 uM, ligand 100 ng/ml): 1.71
- ability of recombinant RTK ligand to confer resistance ([2]; G-361, PD184352 - 1 uM, ligand 0.4 ng/ml): 1.17
- ability of recombinant RTK ligand to confer resistance ([2]; G-361, PD184352 - 1 uM, ligand 1.6 ng/ml): 1.03
- ability of recombinant RTK ligand to confer resistance ([2]; G-361, PD184352 - 1 uM, ligand 6.25 ng/ml): 1.19
- ability of recombinant RTK ligand to confer resistance ([2]; G-361, PD184352 - 1 uM, ligand 25 ng/ml): 1.68
- ability of recombinant RTK ligand to confer resistance ([2]; G-361, PD184352 - 1 uM, ligand 100 ng/ml): 1.10
- ability of recombinant RTK ligand to confer resistance ([2]; G-361, PLX4720 - 2 uM, ligand 0.4 ng/ml): 0.97
- ability of recombinant RTK ligand to confer resistance ([2]; G-361, PLX4720 - 2 uM, ligand 1.6 ng/ml): 1.03
- ability of recombinant RTK ligand to confer resistance ([2]; G-361, PLX4720 - 2 uM, ligand 6.25 ng/ml): 1.24
- ability of recombinant RTK ligand to confer resistance ([2]; G-361, PLX4720 - 2 uM, ligand 25 ng/ml): 2.27
- ability of recombinant RTK ligand to confer resistance ([2]; G-361, PLX4720 - 2 uM, ligand 100 ng/ml): 9.24
- ability of recombinant RTK ligand to confer resistance ([2]; SK-MEL-5, PD184352 - 1 uM, ligand 0.4 ng/ml): 0.99
- ability of recombinant RTK ligand to confer resistance ([2]; SK-MEL-5, PD184352 - 1 uM, ligand 1.6 ng/ml): 1.17
- ability of recombinant RTK ligand to confer resistance ([2]; SK-MEL-5, PD184352 - 1 uM, ligand 6.25 ng/ml): 1.16
- ability of recombinant RTK ligand to confer resistance ([2]; SK-MEL-5, PD184352 - 1 uM, ligand 25 ng/ml): 1.81
- ability of recombinant RTK ligand to confer resistance ([2]; SK-MEL-5, PD184352 - 1 uM, ligand 100 ng/ml): 2.32
- ability of recombinant RTK ligand to confer resistance ([2]; SK-MEL-5, PLX4720 - 2 uM, ligand 0.4 ng/ml): 0.98
- ability of recombinant RTK ligand to confer resistance ([2]; SK-MEL-5, PLX4720 - 2 uM, ligand 1.6 ng/ml): 1.37
- ability of recombinant RTK ligand to confer resistance ([2]; SK-MEL-5, PLX4720 - 2 uM, ligand 6.25 ng/ml): 1.35
- ability of recombinant RTK ligand to confer resistance ([2]; SK-MEL-5, PLX4720 - 2 uM, ligand 25 ng/ml): 1.95
- ability of recombinant RTK ligand to confer resistance ([2]; SK-MEL-5, PLX4720 - 2 uM, ligand 100 ng/ml): 1.93
- ability of recombinant RTK ligand to confer resistance ([2]; SK-MEL-28, PD184352 - 1 uM, ligand 0.4 ng/ml): 1.11
- ability of recombinant RTK ligand to confer resistance ([2]; SK-MEL-28, PD184352 - 1 uM, ligand 1.6 ng/ml): 1.16
- ability of recombinant RTK ligand to confer resistance ([2]; SK-MEL-28, PD184352 - 1 uM, ligand 6.25 ng/ml): 1.22
- ability of recombinant RTK ligand to confer resistance ([2]; SK-MEL-28, PD184352 - 1 uM, ligand 25 ng/ml): 1.46
- ability of recombinant RTK ligand to confer resistance ([2]; SK-MEL-28, PD184352 - 1 uM, ligand 100 ng/ml): 1.87
- ability of recombinant RTK ligand to confer resistance ([2]; SK-MEL-28, PLX4720 - 2 uM, ligand 0.4 ng/ml): 1.05
- ability of recombinant RTK ligand to confer resistance ([2]; SK-MEL-28, PLX4720 - 2 uM, ligand 1.6 ng/ml): 1.42
- ability of recombinant RTK ligand to confer resistance ([2]; SK-MEL-28, PLX4720 - 2 uM, ligand 6.25 ng/ml): 1.55
- ability of recombinant RTK ligand to confer resistance ([2]; SK-MEL-28, PLX4720 - 2 uM, ligand 25 ng/ml): 3.85
- ability of recombinant RTK ligand to confer resistance ([2]; SK-MEL-28, PLX4720 - 2 uM, ligand 100 ng/ml): 2.20
- ability of RTK ligand to confer primary resistance ([2]; six V600E BRAF melanoma cell lines, BRAFi (PLX4720) or MEKi (PD184352)): confer substantial primary resistance
- activation of pAKT by HGF over time (pERK/pAKT; under BRAFi (PLX4720)): sustained over time
- reactivation of pERK by HGF (pERK/pAKT; under BRAFi (PLX4720)): substantially reactivate pERK
- re-activation of pERK/pAKT (pERK/pAKT; under BRAFi (PLX4720), after 1 hour of cytokine treatment, six V600E BRAF melanoma cell lines): reactivate both ERK and AKT
- reactivation of pERK by HGF (pERK/pAKT; under MEKi (PD184352)): not under MEKi
- activation of pAKT by RTK ligands (pERK/pAKT; under PLX4720, FIG. 10B): activates AKT in every cell lines tested
- duration of ERK/AKT activation (pERK/pAKT; under PLX4720 treatment): long lasting
